Entries after “also recorded” stand apart in the source; their conditions may differ.
Tests used:
tomato EIN2-ETR1 complex = molecular target: T1, tomato EIN2-ETR1 complex (Solanum lycopersicum, UniProt Q41342); experiment: FRET assay of LeEIN2-LeETR1 complex formation; assay type: biochemical
T1 construct: made in house; host or cells: E. coli BL21(DE3) with pRARE (LeEIN2 fragment); E. coli (LeETR1)
T1 sequence (Q41342 1-754): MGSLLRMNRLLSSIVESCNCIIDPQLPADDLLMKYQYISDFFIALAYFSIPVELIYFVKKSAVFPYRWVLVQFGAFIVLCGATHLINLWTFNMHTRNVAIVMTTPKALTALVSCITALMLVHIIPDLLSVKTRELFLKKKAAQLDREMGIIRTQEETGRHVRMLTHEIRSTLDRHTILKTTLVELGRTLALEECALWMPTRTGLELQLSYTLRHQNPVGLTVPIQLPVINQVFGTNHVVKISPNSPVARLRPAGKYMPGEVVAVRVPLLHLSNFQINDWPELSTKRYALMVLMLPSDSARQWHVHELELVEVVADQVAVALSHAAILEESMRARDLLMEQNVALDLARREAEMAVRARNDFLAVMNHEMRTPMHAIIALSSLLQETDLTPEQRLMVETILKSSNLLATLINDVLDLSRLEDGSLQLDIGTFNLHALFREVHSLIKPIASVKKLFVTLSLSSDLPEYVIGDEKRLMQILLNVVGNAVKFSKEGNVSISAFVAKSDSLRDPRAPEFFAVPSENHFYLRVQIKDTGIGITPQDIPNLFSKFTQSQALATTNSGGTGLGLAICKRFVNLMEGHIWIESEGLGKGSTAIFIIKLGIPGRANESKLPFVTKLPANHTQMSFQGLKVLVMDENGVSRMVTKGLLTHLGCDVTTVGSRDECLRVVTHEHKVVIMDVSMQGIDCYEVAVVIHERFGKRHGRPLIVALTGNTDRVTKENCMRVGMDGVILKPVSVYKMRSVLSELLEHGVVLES
From the text: For this purpose, we made use of a fluorescence resonance energy transfer (FRET)-based in vitro assay, originally established for the respective Arabidopsis signaling proteins. Recombinant ethylene proteins LeETR1 and LeEIN2^462–1316 were labeled with fluorescent Alexa dyes[36] as described in the Methods section. LeETR1 was labeled with Alexa Fluor 488, while LeEIN2^462–1316 was labeled with Alexa Fluor 568. As the emission spectrum of the donor fluorophore partially overlaps with the excitation spectrum of the acceptor fluorophore, the dyes form a FRET pair and energy transfer from the donor to the acceptor fluorophore is possible when both probes get in close proximity. […] Formation of the complex is monitored by FRET from the donor molecule Alexa Fluor 488 to the acceptor molecule Alexa Fluor 568. Processes or molecules that prevent complex formation result in a reduced FRET from the donor to the acceptor, which is detected as reduced acceptor fluorescence at the emission maximum.
Quantitative analysis of inhibitory peptides on ETR1-EIN2 complex by FRET
For the FRET assay, recombinant LeETR1 was labeled with Alexa Fluor 488 succinimidyl-ester and LeEIN2^462–1316 was labeled with Alexa Fluor 568 succinimidyl-ester (both Life Technologies) in a buffer containing 50 mM potassium phosphate pH 8.0, 300 mM NaCl and 5% (v/v) glycerol following manufacturer’s protocol (MolecularProbes Protein Labeling Kit). Labeled proteins were transferred in FRET buffer containing 50 mM Tris-HCl pH 8.0, 300 mM NaCl, 0.05% (v/v) Tween 20, 5% (v/v) glycerol and mixed at a final concentration of 3.0 μM each. […] The FRET-based binding assay was carried out in 384-well microplates using an Infinite M200 Pro microplate reader (Tecan) at 455 nm excitation wavelength. Emission spectra were detected between 565 nm to 645 nm. FRET efficiencies were calculated from the maximal emission in the absence and in the presence of the supplied peptides and the half maximal inhibitor concentration IC50 was calculated as previously described.

[1] = tested on: green, immature tomato fruits; design: method as in PMID 25843012; conditions: cited from earlier work
NOP-1 stability by LC/MS = assay type: physicochemical; conditions: NOP-1 500 µg in 100 µl PBS pH 6.7, 0, 5, 10 and 15 days, room temperature; Supelcosil C18, 215 nm; identity by mass spectrometry
Method: Figure S4: Analysis of NOP-1 stability by liquid chromatography (LC).
Lyophilized NOP-1 (500 µg) was dissolved in 100 µl PBS pH 6.7, incubated for 0 days, 5 days, 10 days and 15 days at room temperatures and then applied to a Supelcosil C18 column (4.6x150 mm). The column was washed with 15 ml H2O with 0.1% TFA (buffer A).
Elution was performed with a linear gradient to 100% buffer B (100% acetonitrile with 0.1% TFA) over 30 min at a flow rate of 1 ml min-1. Detection was set to 215 nm. Identity of the peptide was confirmed by mass spectrometry. […]

CC(C)C[C@H](NC(=O)[C@H](CCCNC(=N)N)NC(=O)[C@H](CCCNC(=N)N)NC(=O)[C@H](CCCCN)NC(=O)[C@H](Cc1ccc(O)cc1)NC(=O)[C@H](CCCNC(=N)N)NC(=O)[C@H](CCCCN)NC(=O)[C@@H](N)CC(C)C)C(N)=O [NOP-1, LKRYKRRL-NH2]
FRET efficiency (of the value observed in the absence of NOP-1) (tomato EIN2-ETR1 complex; 100 μM NOP-1, LeETR1-Alexa Fluor 488 and LeEIN2^462–1316-Alexa Fluor 568, 3 μM each, 50 mM Tris-HCl pH 8.0, 300 mM NaCl, 0.05% Tween 20, 5% glycerol, excitation 455 nm, emission 565–645 nm): about 9% | effect on tomato EIN2-ETR1 complex formation (tomato EIN2-ETR1 complex; FRET assay, 100 μM peptide where stated, LeETR1-Alexa Fluor 488 and LeEIN2-Alexa Fluor 568, 3 μM each): pronounced inhibition in FRET efficiency; also recorded: leads to a reduced FRET from LeETR1-Alexa Fluor 488 to LeEIN2-Alexa Fluor 568; also recorded: able to efficiently disrupt EIN2-ETR1 complex formation in tomato; also recorded: specific disruption of the tomato EIN2-ETR1 complex | effect on fruit ripening in tomato, previous work [1]: efficiently reduced fruit ripening in tomato | stability of the peptide (NOP-1 stability by LC/MS): stable for several days at room temperature under normal conditions
